Assay results taken from patent US20260008746A1, “CATIONIC LIPID COMPOUND WITH HIGH EFFICIENCY, LOW TOXICITY AND STABLE EXPRESSION, AND COMPOSITION COMPRISNG SAME” (HANGZHOU TIANLONG PHARMACEUTICAL CO., LTD, priority 2023, published 2026).

Key:
[1] = Determination of particle size and polydispersity index (PDI) of lipid nanoparticles by dynamic light scattering; assay type: physicochemical; settings: LNP formulation of named cationic lipid/DSPC/cholesterol/DMG-PEG2000 49:10:39.5:1.5; for Particle size (nm): 90° scattering angle, 25° C
Protocol: The cationic lipids listed in Table 1 were dissolved in ethanol with DSPC (AVT (Shanghai) Pharmaceutical Technology Co., Ltd.), cholesterol (AVT (Shanghai) Pharmaceutical Technology Co., Ltd.) and DMG-PEG2000 according to a molar ratio of 49:10:39.5:1.5, respectively, to prepare lipid solution in ethanol. The lipid solution in ethanol was quickly added to citrate buffer (pH=4 to 5) by ethanol injection method, and vortexed for 30 s for later use. eGFP-mRNA (from Shanghai Biohub International Trade Co., Ltd) or Fluc-mRNA (from Shanghai Biohub International Trade Co., Ltd) was diluted in citrate buffer (pH=4 to 5) to give an aqueous mRNA solution. A certain volume of liposome solution and mRNA aqueous solution were used to prepare liposomes at a weight ratio of total lipids to mRNA of 15:1. The mixtures were sonicated at 25° C. for 15 min (with an ultrasonic frequency of 40 kHz and an ultrasonic power of 800 W). The resulting liposomes were diluted to 10 times volume with PBS, and then ultrafiltered with a 300 KDa ultrafiltration tube to remove ethanol. Then the volume was fixed to a certain volume with PBS to give an LNP formulation encapsulating eGFP-mRNA or Fluc-mRNA using cationic lipid/DSPC/cholesterol/DMG-PEG2000 (49:10:39.5:1.5 in molar percentage).
The particle size and polydispersity index (PDI) were determined by dynamic light scattering using Malvern laser particle size analyzer.
10 μL of the liposome solution was weighed, diluted to 1 mL with RNase-free deionized water, and added to the sample pool. Each sample was measured in triplicate. The measurement conditions were: 90° scattering angle, and 25° C.

293T cells [2] = assay: Fluorescent detection of Fluc-mRNA (cell transfection efficiency of LNP formulations); assay type: cell-based; settings: for Relative light unit (RLU): LNP formulation containing 0.3 μg Fluc-mRNA, 96-well plate, 24 hours; for Multiples (YK-107): RLU of YK-107 / RLU of named substance; for fluorescence absorption value, times that of HHMA: RLU of named substance / RLU of HHMA; for fluorescence absorption value, times that of Lipofectamine 3000: RLU of named substance / RLU of Lipofectamine 3000; for Ratio relative to SM-102: RLU of named substance / RLU of SM-102; for Fluc-mRNA expression signal intensity, times that of compound 21: RLU of named substance / RLU of compound 21; for fluorescence absorption value, times that of compound 23: RLU of named substance / RLU of compound 23; for difference from SM-102 in Fluc-mRNA fluorescence (GraphPad Prism analysis): statistical comparison with SM-102; for Multiples (YK-101): RLU of YK-101 / RLU of named substance; for Multiples (YK-108): RLU of YK-108 / RLU of named substance
Protocol: (§1) Cell recovery and passage: 293T cells were recovered, cultured in a culture dish, and passaged to the required number of cells.
(§2) Seeding plate: The cells in the culture dish were digested and counted. Cells were spread in a 96-well plate at 10,000 cells per well and in a 12-well plate at 150,000 cells per well. Cells were cultured overnight until the cells adhered to the wall.
Cell recovery and passage: the method was the same as in Example 3.
Seeding plate: the method was the same as in Example 3.
An LNP formulation containing 0.3 μg of Fluc-mRNA (the carrier components of the LNP formulation were cationic lipid, neutral lipid, structured lipid and polymer-conjugated lipid with a molar ratio of 49:10:39.5:1.5, wherein the cationic lipid was listed in Table 1) was added to the cell culture medium of a 96-well plate, and further incubated for 24 hours. The corresponding reagent was added according to the instructions of the Gaussia Luciferase Assay Kit, and the fluorescence expression intensity of each well was detected by an IVIS fluorescence detection system. This test verified the transfection efficiencies of LNP formulations in cells, see Tables 3-6 for specific test results.

293T cells [3] = assay: Cell survival rate determination (CCK-8); assay type: cell-based; settings: for Cell survival rate (%): LNP formulation containing 1.5 μg Fluc-mRNA, 24 hours, CCK-8, absorbance at 450 nm; for cell survival rate lower than that of YK-101: cell survival rate of YK-101 minus that of named substance; for cell survival rate lower than that of YK-107: cell survival rate of YK-107 minus that of named substance; for cell survival rate lower than that of YK-108: cell survival rate of YK-108 minus that of named substance
Protocol: as §1, §2
An LNP formulation containing 1.5 μg of Fluc-mRNA (the cater component of the LNP formulation were cationic lipid, neutral lipid, structured lipid and polymer-conjugated lipid with a molar ratio of 49: 10: 39.5: 1.5, wherein the cationic lipid was listed in Table 1) and the formulation of Lipofectamine 3000 were added to the cell culture medium of a 96-well plate, and further cultivated for 24 hours. 10 μL of CCK-8 solution was then added to each well, and the culture plate was incubated in an incubator for 1 hour. The absorbance at 450 nm was measured by a microplate reader.

BALB/C mice = assay: In vivo imaging of Fluc-mRNA expression in mice delivered by LNP formulations; settings: for average radiation intensity, 6 h / average radiation intensity, 24 h / average radiation intensity, 48 h / average radiation intensity, 7 d: LNP containing 10 pg Fluc-mRNA, intramuscular, female BALB/C mice
Protocol: The LNP formulation containing […] Fluc-mRNA was injected intramuscularly into female BALB/C mice aged 4-6 weeks old and weighed 17-19 g, and the mice were intraperitoneally injected with fluorescent imaging substrate at specific time points after administration (6h, 24 h, 48h and 7d), where the mice were allowed to move freely for 5 minutes, and then the average radiation intensity (corresponding to fluorescence expression intensity) of the protein expression of the mRNA carried by the LNP in the mice was detected by the IVIS Spectrum small animal in vivo imaging device. The test results are shown in Tables 11 to 14 and FIGS. 12 to 14.

[4] = highest multiple, time point not stated

SMILES	PDI(%) [1]	Particle size (nm) [1]	Relative light unit (RLU) (293T cells [2])	Multiples (YK-107) (293T cells [2])	fluorescence absorption value, times that of HHMA (293T cells [2])	fluorescence absorption value, times that of Lipofectamine 3000 (293T cells [2])	Ratio relative to SM-102 (293T cells [2])	Fluc-mRNA expression signal intensity, times that of compound 21 (293T cells [2])	fluorescence absorption value, times that of compound 23 (293T cells [2])	difference from SM-102 in Fluc-mRNA fluorescence (GraphPad Prism analysis) (293T cells [2])	Cell survival rate (%) (293T cells [3])	cell survival rate lower than that of YK-101 (293T cells [3])	cell survival rate lower than that of YK-107 (293T cells [3])	cell survival rate lower than that of YK-108 (293T cells [3])	Multiples (YK-101) (293T cells [2])	Multiples (YK-108) (293T cells [2])	average radiation intensity, 6 h (BALB/C mice; 6 h)	average radiation intensity, 24 h (BALB/C mice; 24 h)	average radiation intensity, 48 h (BALB/C mice; 48 h)	average radiation intensity, 7 d (BALB/C mice; 7 d)	also measured
CCCCCCCCCCOC(=O)CCCN(CCCCCC(=O)OCCC(CCCCCC)CCCCCC)CCOCCOCCO [YK-121, 3-hexylnonyl 6-(4-(decyloxy)-4-oxobutyl)(2-(2-(2-hydroxyethoxy)ethoxy-ethyl)amino)hexanoate]	25.1%	192 nm	427603 RLU	52.29	0.21 times	0.40 times	0.28	0.31 times	0.33 times	significant difference	73.11%	17.01%	17.34%	16.75%							
CCCCCCCCCCOC(=O)CCCN(CCCCCC(=O)OCCC(CCCCCC)CCCCCC)CCOC(=O)CCCN(C)C [YK-125]	26.4%	220 nm	169824 RLU	131.67	0.08 times	0.16 times	0.11	0.12 times	0.13 times	significant difference	35.39%	54.73%	55.06%	54.47%							
CCCCCCCCCCOC(=O)CCCN(CCCCCC(=O)OCC(CCCCCCCC)CCCCCCCC)CCOCCO [YK-124, 2-octyldecyl 6-(4-(decyloxy)-4-oxobutyl)(2-(2-hydroxyethoxy-ethyl)amino)hexanoate]	14.7%	216 nm	81596 RLU		0.04 times	0.08 times	0.05	0.06 times	0.06 times	significant difference	77.56%	12.56%	12.89%	12.30%							
CCCCCCCCCCOC(=O)CCCN(CCCCCC(=O)OCCC(CCCCCC)CCCCCC)CC(O)CO (stereo not shown) [YK-114, 3-hexylnonyl 6-(4-(decyloxy)-4-oxobutyl)((2,3-dihydroxypropyl)amino)hexanoate]			1418926 RLU	15.76	0.69 times	1.32 times	0.92	1.02 times	1.10 times		68.33%	21.79%	22.12%	21.53%	14.33	17.38	535760	93565	19004	5457	average radiation intensity of YK-101, times that of named substance (BALB/C mice; 6 h): 2.8 times; average radiation intensity of YK-107, times that of named substance (BALB/C mice; 6 h): 3.0 times; average radiation intensity of YK-108, times that of named substance (BALB/C mice; 6 h): 3.8 times; average radiation intensity of YK-101, times that of named substance (BALB/C mice; 24 h): 11.3 times; average radiation intensity of YK-107, times that of named substance (BALB/C mice; 24 h): 13.9 times; average radiation intensity of YK-108, times that of named substance (BALB/C mice; 24 h): 15.0 times; average radiation intensity of YK-101, times that of named substance (BALB/C mice; 48 h): 9.8 times; average radiation intensity of YK-107, times that of named substance (BALB/C mice; 48 h): 11.9 times; average radiation intensity of YK-108, times that of named substance (BALB/C mice; 48 h): 12.1 times; average radiation intensity of YK-101, times that of named substance (BALB/C mice; 7 d): 2.2 times; average radiation intensity of YK-107, times that of named substance (BALB/C mice; 7 d): 2.4 times; average radiation intensity of YK-108, times that of named substance (BALB/C mice; 7 d): 2.6 times; expression amount of mRNA in mice of YK-101, times that of named substance (BALB/C mice; [4]): up to 11 times; expression amount of mRNA in mice of YK-107, times that of named substance (BALB/C mice; [4]): ≤ 13 times
CCCCCCCCCCOC(=O)CCCN(CCCO)CCCCCC(=O)OCC(CCCCCCCC)CCCCCCCC [YK-107, 2-octyldecyl 6-(4-(decyloxy)-4-oxobutyl)((3-hydroxypropyl)amino)hexanoate]			22361210 RLU	1.00			14.58				90.45%				0.91	1.10	1601250	1302640	226170	13288	
